Consider 12 compounds from PubChem BioAssay (NCI).

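Tested at 5 concentrations; 48 h exposure; 96-well plates; endpoints linearly interpolated, else capped at highest concentration. At the GI50, growth is halved. TGI marks complete inhibition of growth.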

Holding throughout (test): NCI tumour cell line growth inhibition, 48 h
For assay [1], the system named is COLO 205 colon.
For assay [2], the system named is HCT-15 colon.
The subject of assay [3] is MCF7 breast.
Assay [4] deals with A498 renal.
For assay [5], the system named is OVCAR-5 ovarian.
For assay [6], the system named is CAKI-1 renal.
The subject of assay [7] is HOP-92 NSCLC.
In assay [8] the test system is SK-MEL-2 melanoma.
Assay [9] relates to NCI/ADR-RES ovarian.
The subject of assay [10] is 786-0 renal.

Regarding `CC1(C)NCCC[C@]2(C)[C@H]3C=CC4=C5C[C@](C)(CO)CC[C@]5(C)CC[C@@]4(C)[C@]3(C)CC[C@@H]12`, the GI50 in assay [1] was 3.63 µM; in [2], 4.21 µM; in assay [3] it was 3.14 µM; in [4] it was 11.4 µM; in assay [5], 12.4 µM; in assay [6], 3.7 µM. The GI50 in [7] is 3.1 µM; in [8], 3.31 µM; in [9] it was 2.02 µM; in assay [10] it was 2.66 µM. The TGI in [1] was found to be 13.9 µM; in [2], 16.4 µM; in [3], 14.5 µM; in [4] it was 24.5 µM; in assay [5], 25.3 µM; in [6], 13.8 µM. The TGI in assay [7] was 14.6 µM; in assay [8] it was 12.2 µM; in [9], 4.52 µM; in assay [10], 8.59 µM.

On to `O=[N+]([O-])c1ccc(-c2nc(N(CCO)CCO)c3ccccc3n2)o1`, for which the GI50 in assay [1] is 0.118 µM; in assay [2], 0.176 µM; in [3], 0.0419 µM; in assay [4] it was 0.119 µM; in [5], 0.562 µM; in assay [6], 0.282 µM. The GI50 was 0.247 µM in assay [7], 0.158 µM in assay [8], 0.956 µM in assay [9] and 0.231 µM in assay [10]. Further, the TGI in assay [1] came to 0.264 µM; in [2], 1.71 µM; in [3], 0.397 µM; in assay [4], 0.255 µM; in assay [5], 5.1 µM; in assay [6], 3.33 µM. Further, the TGI in assay [7] came to 0.831 µM; in assay [8] it was 0.361 µM; in assay [9] it was 7.57 µM; in [10], 0.621 µM.

Consider `OCC(O)C(O)C(O)C1SC(c2ccccc2)=NN1c1ccccc1` (stereo not given), for which the TGI in [1], in [2], in assay [3], in assay [4], in assay [5] and in [6] was > 100 µM throughout. The TGI is 63.4 µM in assay [7], 93.2 µM in assay [8], > 100 µM in assay [9] and > 100 µM in assay [10].

`C/C=C(\C)C(=O)N[C@H]1[C@@H](OC(C)=O)C[C@]2(C)C3CC[C@@]4(C)C(CC[C@@H]4C(C)N(C)C)C3CCC2[C@H]1O` (stereo not given in full): the GI50 in [1] was 2.15 µM; in assay [2] it was 1.46 µM; in [3], 3.71 µM; in assay [4], 2.73 µM; in assay [5], 13.8 µM; in assay [6], 3.2 µM. Moreover, the GI50 is 1.04 µM in assay [7], 2.3 µM in [8], 9.79 µM in assay [9] and 5.22 µM in assay [10]. For the same compound, the TGI is 5.91 µM in [1]; 4.22 µM in assay [2]; 18.1 µM in [3]; 20 µM in assay [4]; 28.2 µM in assay [5]; 14 µM in assay [6]. In addition, the TGI in assay [7] is 15.5 µM; in [8] it was 6.38 µM; in assay [9], 30.3 µM; in [10], 16.3 µM.

Consider `NCCCC(=O)Nc1ccncc1`, for which the GI50 in assay [1], in [2], in assay [3], in [4], in [5] and in [6] was > 100 µM throughout. Besides, the GI50 in [7], in assay [8], in [9] and in assay [10] was > 100 µM each time. Besides, the TGI in assay [1], in assay [2], in [3], in assay [4], in [5] and in assay [6] was > 100 µM each time. The TGI in assay [7], in [8], in [9] and in assay [10] was > 100 µM each time.

With `CC1(C)COCN1COC1CCCCC1`, the TGI in assay [1], in assay [2], in assay [3], in assay [4], in [5] and in assay [6] was > 100 µM in each case. Besides, the TGI in assay [7], in assay [8], in assay [9] and in assay [10] was > 100 µM throughout.

Take `CN(C)NC1=NS(=O)(=O)c2cc3c(cc2S1)N(N(C)C)C(=O)c1cc2c(cc1N(N(C)C)C3=O)SC(NN(C)C)=NS2(=O)=O`: the TGI in assay [1], in assay [2], in [3], in assay [4], in [5] and in [6] was > 10 µM in each case. Further, the TGI in assay [7], in assay [8], in assay [9] and in assay [10] was > 10 µM in each case.

Take `O=C(Nc1ccc(-n2cc(-c3ccncc3)c(-c3ccc(Cl)c(O)c3)n2)cc1)Nc1cc(C(F)(F)F)cc(C(F)(F)F)c1`: the GI50 in assay [1] was 1.2 µM; in assay [2], 1.9 µM; in assay [3] it was 2.58 µM; in [4] it was 1.56 µM; in assay [5] it was 2.26 µM; in [6] it was 1.77 µM. For the same compound, the GI50 is 1.34 µM in assay [7], 1.8 µM in [8], 2.22 µM in [9] and 1.8 µM in [10]. Further, the TGI was found to be 2.81 µM in [1]; 4.3 µM in [2]; 8.15 µM in assay [3]; 5.39 µM in [4]; 7.21 µM in assay [5]; 3.57 µM in [6]. The TGI was found to be 3.99 µM in [7], 3.45 µM in assay [8], 5.6 µM in [9] and 3.72 µM in [10].

Consider `Nc1ccc(C(=O)c2ccc(N)c(Br)c2)cc1Br`, for which the GI50 in [1] was 0.393 µM; in assay [2], 0.466 µM; in assay [3], 0.428 µM; in [4] it was 0.277 µM; in assay [5] it was 0.701 µM; in [6], 0.299 µM. For the same compound, the GI50 in assay [7] is 0.299 µM; in assay [8], 0.435 µM; in [9] it was 0.348 µM; in [10], 0.775 µM. In addition, the TGI in [1] was 2.2 µM; in assay [2], > 100 µM; in assay [3], > 100 µM; in assay [4], 3.95 µM; in assay [5], > 100 µM; in assay [6], 14.7 µM. Moreover, the TGI in assay [7] is 5.9 µM; in assay [8] it was 3.99 µM; in [9] it was > 46.2 µM; in assay [10], 17.8 µM.

Turning to `OC(C1=C/C(=C\c2ccncc2)c2ccccc21)c1ccncc1` (stereo not given), the TGI in [1] is 29.3 µM; in assay [2], > 63.5 µM; in assay [3] it was 30.7 µM; in assay [4], 27.3 µM; in assay [5], 37.4 µM; in [6], > 49.5 µM. For the same compound, the TGI in [7] was 49.7 µM; in [8], 33.8 µM; in assay [9], > 75 µM; in [10], 30.3 µM.

Turning to `CN(C)CCCN=C(N)N`, the TGI in [1], in [2], in [3], in assay [4], in [5] and in [6] was > 100 µM each time. Also, the TGI in assay [7], in assay [8], in [9] and in assay [10] was > 100 µM throughout.

For the compound `CCN(CC)CCOc1ccc(Nc2ncc3cc(-c4ccc(O)cc4)c(=O)n(C)c3n2)cc1`, the GI50 in [1] is 1.59 µM; in [2], 0.191 µM; in [3], 1.07 µM; in [4], 1.5 µM; in assay [5], 10.7 µM; in assay [6], 0.0379 µM. Moreover, the GI50 in assay [7] is 12.9 µM; in [8], 18.9 µM; in assay [9], 12.7 µM; in [10] it was 0.391 µM. Also, the TGI worked out at 17.2 µM in assay [1]; 1.75 µM in assay [2]; 2.78 µM in assay [3]; 13.4 µM in assay [4]; 30.8 µM in assay [5]; 16.1 µM in assay [6]. Also, the TGI in [7] turned out to be 31.1 µM; in assay [8], 39.5 µM; in [9], 41.5 µM; in [10], 2.65 µM.
